Test results: US20190060330A1, “APPLICATION OF 4-HYDROXY SALICYLANILIDE IN PREPARATION OF ANTI-MYELOMA OR ANTI-LYMPHOMA DRUGS” (priority 2016, published 2019)
Values joined by “and” are separate entries in the source; they are usually repeats but may differ in a detail not shown here. Equal entries are not always repeated. “Also recorded” adds a separate entry of the source.

Tests used:
[1] = system: H929 cells; assay: Animal experiment for multiple myeloma: subcutaneous H929 tumors in nude mice; assay type: in vivo, BALB/C nude mice; conditions: for Tumor volume, mean / Tumor volume, individual mice No. 1-4: caudal vein
Experimental: (1) Cell line: human multiple myeloma cells (H929 cells) (from ATCC, USA. The cells were passaged and preserved in the applicant's laboratory), were cultured in a 1640 culture medium (containing 10% fetus bovine serum).
(2) Experimental animals: Male BALB/C nude mice (4-6 week old, purchased from Shanghai Sippr-BK laboratory animal Co. Ltd), were housed in an SPF condition (Center Laborotory Animal Room, Shanghai Tenth People's Hospital).
The cells were cultured in 1640 a 1640 culture medium (containing 10% fetus bovine serum, pH 7.2) supplemented with 2 mmol/L glutamine. The resultant was cultured in a incubator at 37° C. under 5% CO2 environment.
The 1640 medium containing 3.5×10^6 H929 cells was injected subcutaneously into the right axilla of the nude mice, and when the tumors grew to a measurable size, the mice were randomly assigned into the control group and the administration group. The nude mice in the administration group were injected through caudal vein with 4-hydroxy salicylanilide at 50 mg/kg and 100 mg/kg per day. The nude mice in the control group were injected with the same volume of solvent (200 μL, 5% DMSO+4% castor oil+91% normal saline). The tumor sizes were measured every two days (measuring the length and width of the tumor, tumor volume=0.5×(width)^2×length). The mice were sacrificed after a 22-day administration and the tumors were taken for taking photos.

[2] = system: OPM2 cells; assay: CCK8 cytotoxicity, OPM2 multiple myeloma cells; assay type: cell-based; conditions: Homo sapiens, OPM-2, 72 h
Experimental: (§1) (1) Cell lines: human multiple myeloma cells (H929 cells, OPM2 cells, U266 cells, OCI-MY5 cells, RPMI 8266 cells) (from ATCC of USA. The cells were passaged and preserved in the applicant's laboratory), were cultured in a 1640 culture medium (containing 10% fetus bovine serum).
(§2) The cells were cultured in 1640 medium (containing 10% fetal bovine serum, pH 7.2) supplemented with 2 mmol/L glutamine. The cells were cultured in a cell culture incubator at 37° C., 5% CO2.
(§3) A single-cell suspension of human multiple myeloma cells (H929 cells, OPM2 cells, U266 cells, OCI-MY5 cells, RPMI 8266 cells) was taken for cell counting, and the cell concentration was adjusted to 2×10^5 cells/mL. 95 μL of the above cell suspension was added into each well of a 96-well culture plate, and then 5 μL of the drug prepared with the medium was added at different concentrations, while the same volume of culture medium was added in the control group. Three parallel wells were set in each group. The plate was subjected to continuous culture for 72 h. 2 hours before the end of the culture, 10 μL of CCK8 reagent was added into each well, and the plate was continued to culture in a CO2 incubator. After 2 hours, the OD value of each well at 450 nm was detected by an automatic microplate reader. […]

[3] = system: SUDHL-4 cells; assay: CCK8 cytotoxicity, SUDHL-4 lymphoma cells; assay type: cell-based; conditions: Homo sapiens, SU-DHL-4, 72 h
Experimental: (§4) A single-cell suspension of human multiple myeloma cells (H929 cells, OPM2 cells, U266 cells, OCI-MY5 cells, RPMI 8266 cells) was taken for cell counting, and the cell concentration was adjusted to 2×10^5 cells/mL. 95 μL of the above cell suspension was added into each well of a 96-well culture plate, and then 5 μL of the drug prepared with the medium was added at different concentrations, while the same volume of culture medium was added in the control group. Three parallel wells were set in each group. The plate was subjected to continuous culture for 72 h. 2 hours before the end of the culture, 10 μL of CCK8 reagent was added into each well, and the plate was continued to culture in a CO2 incubator. After 2 hours, the OD value of each well at 450 nm was detected by an automatic microplate reader. Cell viability and inhibition rate were calculated: cell viability (%)=(OD mean of experimental well/OD mean of control well)×100%. Cell inhibition rate (%)=100%−cell viability (%). The fitting function was used to determine the IC50 of the drug concentration when the cell growth was inhibited by 50%. The experiment was in triplicate.
(§5) Cell lines: human lymphoma cells (SUDHL-4 cells, OCI-LY1 cells, OCI-LY8 cells, DB cells, NU-DUL-1 cells, U2932 cells, TMD8 cells)(from ATCC. USA. The cells were passaged and preserved in the applicant's laboratory). IMDM (Gibco Co., USA). […]

[4] = system: U266 cells; assay: CCK8 cytotoxicity, U266 multiple myeloma cells; assay type: cell-based; conditions: Homo sapiens, U-266, 72 h
Experimental: as §1, §2, §3

[5] = system: NU-DUL-1 cells; assay: CCK8 cytotoxicity, NU-DUL-1 lymphoma cells; assay type: cell-based; conditions: Homo sapiens, 72 h
Experimental: as §4, §5

## O=C(Nc1ccc(O)cc1)c1ccccc1O
[1]; 50 mg/kg per day, day 20
  Tumor volume, mean: 2.17 cm^3
[1]; 50 mg/kg per day, day 22
  Tumor volume, individual mice No. 1-4: 3.39 cm^3 and 2.44 cm^3 and 2.19 cm^3 and 2.89 cm^3
  Tumor volume, mean: 2.72 cm^3
[1]; 100 mg/kg per day, day 0
  Tumor volume, individual mice No. 1-4: 0.10 cm^3 and 0.08 cm^3 and 0.04 cm^3 and 0.07 cm^3
  Tumor volume, mean: 0.07 cm^3
[1]; 100 mg/kg per day, day 2
  Tumor volume, individual mice No. 1-4: 0.12 cm^3 and 0.09 cm^3 and 0.08 cm^3 (2×)
  Tumor volume, mean: 0.09 cm^3
[1]; 100 mg/kg per day, day 4
  Tumor volume, individual mice No. 1-4: 0.13 cm^3 (2×) and 0.14 cm^3 and 0.10 cm^3
  Tumor volume, mean: 0.13 cm^3
[1]; 100 mg/kg per day, day 6
  Tumor volume, individual mice No. 1-4: 0.17 cm^3 (2×) and 0.15 cm^3 and 0.13 cm^3
  Tumor volume, mean: 0.16 cm^3
[1]; 100 mg/kg per day, day 8
  Tumor volume, individual mice No. 1-4: 0.26 cm^3 and 0.20 cm^3 and 0.25 cm^3 and 0.17 cm^3
  Tumor volume, mean: 0.22 cm^3
[1]; 100 mg/kg per day, day 10
  Tumor volume, individual mice No. 1-4: 0.39 cm^3 and 0.23 cm^3 (2×) and 0.31 cm^3
  Tumor volume, mean: 0.29 cm^3
[1]; 100 mg/kg per day, day 12
  Tumor volume, individual mice No. 1-4: 0.53 cm^3 and 0.31 cm^3 and 0.39 cm^3 and 0.25 cm^3
  Tumor volume, mean: 0.37 cm^3
[1]; 100 mg/kg per day, day 14
  Tumor volume, individual mice No. 1-4: 0.77 cm^3 and 0.42 cm^3 and 0.44 cm^3 and 0.27 cm^3
  Tumor volume, mean: 0.47 cm^3
[1]; 100 mg/kg per day, day 16
  Tumor volume, individual mice No. 1-4: 0.93 cm^3 and 0.49 cm^3 and 0.50 cm^3 and 0.32 cm^3
  Tumor volume, mean: 0.56 cm^3
[1]; 100 mg/kg per day, day 18
  Tumor volume, individual mice No. 1-4: 1.20 cm^3 and 0.57 cm^3 (2×) and 0.31 cm^3
  Tumor volume, mean: 0.66 cm^3
[1]; 100 mg/kg per day, day 20
  Tumor volume, individual mice No. 1-4: 1.27 cm^3 and 0.63 cm^3 and 0.65 cm^3 and 0.34 cm^3
  Tumor volume, mean: 0.72 cm^3
[1]; 100 mg/kg per day, day 22
  Tumor volume, individual mice No. 1-4: 1.39 cm^3 and 0.71 cm^3 and 0.80 cm^3 and 0.40 cm^3
  Tumor volume, mean: 0.82 cm^3
[1]; H929 tumors in nude mice, 50 and 100 mg/kg per day, 22 days, dose-dependent, P<0.01 at day 22
  Inhibition of tumor growth in animals (in words): significantly inhibit the tumor growth; also recorded: effective in inhibiting the growth of multiple myeloma
[2]
  IC50: 84 µM
[3]
  IC50: 73 µM
[4]
  IC50: 271 µM
[5]
  IC50: 188 µM
